Reference: ChEMBL document CHEMBL5727342, “Imidazo[4,5-C]pyridine and pyrrolo[2,3-C]pyridine derivatives as SSAO inhibitors” (2018)

Molecular target: Voltage-gated inwardly rectifying potassium channel KCNH2 (Homo sapiens, UniProt Q12809)
Assay: Electrophysiological recordings were made from a Chinese Hamster Lung cell line stably expressing the full length hERG channel. Single cell ion currents were measured in the perforated patch clamp configuration (100 ug/mL amphoterocin) at room temperature using an IonWorks Quattro instrument. The internal solution contained 140 mM KCl, 1 mM MgCl2, 1 mM EGTA and 20 mM HEPES and was buffered to pH 7.3. […] This sequence was repeated 5 times at a frequency of 0.25 Hz. […] Compounds were incubated for 6-7 min prior to a second measurement of the hERG signal using an identical pulse train.

Chain of Voltage-gated inwardly rectifying potassium channel KCNH2 (Q12809 whole entry): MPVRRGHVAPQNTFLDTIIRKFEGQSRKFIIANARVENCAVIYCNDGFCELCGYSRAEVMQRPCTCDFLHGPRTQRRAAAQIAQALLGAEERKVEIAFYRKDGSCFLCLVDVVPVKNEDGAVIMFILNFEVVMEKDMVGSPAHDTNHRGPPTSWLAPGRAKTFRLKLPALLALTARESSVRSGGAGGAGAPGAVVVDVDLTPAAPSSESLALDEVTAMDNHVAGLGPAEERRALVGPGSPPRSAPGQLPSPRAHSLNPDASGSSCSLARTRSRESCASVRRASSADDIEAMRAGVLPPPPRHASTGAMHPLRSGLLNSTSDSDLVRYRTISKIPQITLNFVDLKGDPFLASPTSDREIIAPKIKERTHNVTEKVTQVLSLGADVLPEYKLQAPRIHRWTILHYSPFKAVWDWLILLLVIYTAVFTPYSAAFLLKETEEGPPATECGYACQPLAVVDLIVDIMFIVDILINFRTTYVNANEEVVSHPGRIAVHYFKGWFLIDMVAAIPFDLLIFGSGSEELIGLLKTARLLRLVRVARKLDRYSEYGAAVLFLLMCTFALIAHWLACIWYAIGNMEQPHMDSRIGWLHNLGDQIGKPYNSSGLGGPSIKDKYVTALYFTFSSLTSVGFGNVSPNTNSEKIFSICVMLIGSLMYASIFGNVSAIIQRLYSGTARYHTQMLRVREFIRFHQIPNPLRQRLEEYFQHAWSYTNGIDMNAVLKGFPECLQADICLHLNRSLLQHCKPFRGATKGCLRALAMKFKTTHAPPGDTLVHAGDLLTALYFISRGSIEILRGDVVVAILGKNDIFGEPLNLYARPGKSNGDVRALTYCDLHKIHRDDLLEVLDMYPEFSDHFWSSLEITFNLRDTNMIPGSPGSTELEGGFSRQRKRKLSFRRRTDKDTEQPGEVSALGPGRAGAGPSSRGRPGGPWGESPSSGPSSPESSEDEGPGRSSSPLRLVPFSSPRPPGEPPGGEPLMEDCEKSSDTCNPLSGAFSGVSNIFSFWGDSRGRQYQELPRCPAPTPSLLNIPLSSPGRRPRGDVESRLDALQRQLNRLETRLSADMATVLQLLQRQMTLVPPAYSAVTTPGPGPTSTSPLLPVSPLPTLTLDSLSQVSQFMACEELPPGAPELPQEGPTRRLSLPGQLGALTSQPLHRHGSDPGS

Compound: Clc1ccc(-n2c(-c3ccncc3)nc3ccncc32)cc1
- IC50: in the range around 5.5 µM
